Experiments:
ALOMY [1] = test: Pre-emergence action against ALOMY; assay type: in vivo, Alopecurus myosuroides; details: dosage 320 g/ha; pre-emergence; scored visually after 3 weeks vs untreated controls; 100% = plants have died, 0% = like control plants
Outline: (§1)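 Seeds sown in sandy loam in wood-fiber pots and covered with soil. Greenhouse growth; visual damage scored after 3 weeks versus untreated controls (100% = dead, 0% = like control).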

AVEFA [2] = test: Pre-emergence action against AVEFA; assay type: in vivo, Avena fatua; details: dosage 320 g/ha, scored visually after 3 weeks vs untreated controls
Outline: as §1

CYPES [3] = test: Pre-emergence action against CYPES; assay type: in vivo, Cyperus esculentus; details: pre-emergence, dosage 320 g/ha, scored visually after 3 weeks vs untreated controls
Outline: as §1

ECHCG [4] = test: Pre-emergence action against ECHCG; assay type: in vivo, Echinochloa crus-galli; details: pre-emergence, dosage 320 g/ha, scored visually after 3 weeks vs untreated controls
Outline: as §1

LOLRI [5] = test: Pre-emergence action against LOLRI; assay type: in vivo, Lolium rigidum; details: dosage 320 g/ha, scored visually after 3 weeks vs untreated controls
Outline: as §1

SETVI [6] = test: Pre-emergence action against SETVI; assay type: in vivo, Setaria viridis; details: pre-emergence, dosage 320 g/ha, scored visually after 3 weeks vs untreated controls
Outline: as §1

ABUTH [7] = test: Pre-emergence action against ABUTH; assay type: in vivo, Abutilon theophrasti; details: pre-emergence, dosage 320 g/ha, scored visually after 3 weeks vs untreated controls
Outline: as §1

AMARE [8] = test: Pre-emergence action against AMARE; assay type: in vivo, Amaranthus retroflexus; details: pre-emergence, dosage 320 g/ha, scored visually after 3 weeks vs untreated controls
Outline: as §1

MATIN [9] = test: Pre-emergence action against MATIN; assay type: in vivo, Matricaria inodora; details: Dosage 320 g/ha, pre-emergence
Outline: as §1

PHBPU [10] = test: Pre-emergence action against PHBPU; assay type: in vivo, Pharbitis purpurea; details: Dosage 320 g/ha, pre-emergence
Outline: as §1

POLCO [11] = test: Pre-emergence action against POLCO; assay type: in vivo, Polygonum convolvulus; details: Dosage 320 g/ha, pre-emergence
Outline: as §1

STEME [12] = test: Pre-emergence action against STEME; assay type: in vivo, Stellaria media; details: Dosage 320 g/ha, pre-emergence
Outline: as §1

VIOTR [13] = test: Pre-emergence action against VIOTR; assay type: in vivo, Viola tricolor; details: Dosage 320 g/ha, pre-emergence
Outline: as §1

VERPE [14] = test: Pre-emergence action against VERPE; assay type: in vivo, Veronica persica; details: Dosage 320 g/ha, pre-emergence
Outline: as §1

ALOMY [15] = test: Post-emergence action against ALOMY; assay type: in vivo, Alopecurus myosuroides; details: Dosage 80 g/ha, post-emergence
Outline: (§2)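 Post-emergence foliar spray on greenhouse plants at the one-leaf stage, using wettable-powder or emulsion-concentrate formulations in water (600 to […], plus 0.2% wetting agent). Damage scored by eye roughly 3 weeks later against untreated plants: 0% = like control, 100% = dead.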

ECHCG [16] = test: Post-emergence action against ECHCG; assay type: in vivo, Echinochloa crus-galli; details: post-emergence, dosage 80 g/ha, visual assessment about 3 weeks after treatment vs untreated controls
Outline: as §2

LOLRI [17] = test: Post-emergence action against LOLRI; assay type: in vivo, Lolium rigidum; details: dosage 80 g/ha, visual assessment about 3 weeks after treatment vs untreated controls
Experimental: Seeds of monocotyledonous and dicotyledonous weed and crop plants are laid out in sandy loam soil in wood-fiber pots, covered with soil and cultivated in a greenhouse under good growth conditions. 2 to 3 weeks after sowing, the test plants are treated at the one-leaf stage. The compounds of the invention, formulated in the form of wettable powders (WP) or as emulsion concentrates (EC), are then sprayed onto the green parts of the plants in the form of an aqueous suspension or emulsion at a water application rate equating to […], with addition of 0.2% wetting agent. After the test plants have been left to stand in the greenhouse under optimal growth conditions for about 3 weeks, the action of the preparations is assessed visually in comparison to untreated controls (herbicidal action in percent (%): 100% activity=the plants have died, 0% activity=like control plants). […] At the same time, inventive compounds leave Gramineae crops such as barley, wheat, rye, millet/Sorghum, corn or rice virtually undamaged when applied post-emergence, even at high active ingredient dosages. In addition, some substances are also harmless to dicotyledonous crops such as soya, cotton, oilseed rape, sugar beet or potatoes. Some of the compounds according to the invention have high selectivity and are therefore suitable for controlling unwanted vegetation in agricultural crops by the post-emergence method. The data of Tables B18 to B34 below illustrate, in an exemplary manner, the […] herbicidal action of the compounds according to the invention, the herbicidal activity being stated in percent.

SETVI [18] = test: Post-emergence action against SETVI; assay type: in vivo, Setaria viridis; details: post-emergence, dosage 80 g/ha, visual assessment about 3 weeks after treatment vs untreated controls
Outline: as §2

ABUTH [19] = test: Post-emergence action against ABUTH; assay type: in vivo, Abutilon theophrasti; details: post-emergence, dosage 80 g/ha, visual assessment about 3 weeks after treatment vs untreated controls
Outline: as §2

AMARE [20] = test: Post-emergence action against AMARE; assay type: in vivo, Amaranthus retroflexus; details: post-emergence, dosage 80 g/ha, visual assessment about 3 weeks after treatment vs untreated controls
Outline: as §2

MATIN [21] = test: Post-emergence action against MATIN; assay type: in vivo, Matricaria inodora; details: post-emergence, dosage 80 g/ha, visual assessment about 3 weeks after treatment vs untreated controls
Outline: as §2

PHBPU [22] = test: Post-emergence action against PHBPU; assay type: in vivo, Pharbitis purpurea; details: post-emergence, dosage 80 g/ha
Outline: as §2

STEME [23] = test: Post-emergence action against STEME; assay type: in vivo, Stellaria media; details: post-emergence, dosage 80 g/ha
Outline: as §2

VIOTR [24] = test: Post-emergence action against VIOTR; assay type: in vivo, Viola tricolor; details: post-emergence, dosage 80 g/ha
Outline: as §2

VERPE [25] = test: Post-emergence action against VERPE; assay type: in vivo, Veronica persica; details: dosage 80 g/ha
Outline: as §2

AVEFA [26] = test: Post-emergence action against AVEFA; assay type: in vivo, Avena fatua; details: post-emergence, dosage 80 g/ha, visual assessment about 3 weeks after treatment vs untreated controls
Outline: as §2

CYPES [27] = test: Post-emergence action against CYPES; assay type: in vivo, Cyperus esculentus; details: post-emergence, dosage 80 g/ha, visual assessment about 3 weeks after treatment vs untreated controls
Outline: as §2

HORMU = test: Pre-emergence action against HORMU; assay type: in vivo, Hordeum murinum; details: Dosage 320 g/ha
Outline: as §1

POLCO [28] = test: Post-emergence action against POLCO; assay type: in vivo, Polygonum convolvulus; details: post-emergence, dosage 80 g/ha
Outline: as §2

SMILES | Pre-emergence action against ALOMY (herbicidal activity in percent) (ALOMY [1]) | Pre-emergence action against AVEFA (herbicidal activity) (AVEFA [2]) | Pre-emergence action against ECHCG (herbicidal activity) (ECHCG [4]) | Pre-emergence action against LOLRI (herbicidal activity) (LOLRI [5]) | SETVI (Table B8, pre-emergence herbicidal activity) (SETVI [6]) | Pre-emergence action against ABUTH (herbicidal activity) (ABUTH [7]) | Pre-emergence action against AMARE (herbicidal activity) (AMARE [8]) | Pre-emergence action against MATIN (MATIN [9]) | Pre-emergence action against PHBPU (PHBPU [10]) | Pre-emergence action against POLCO (POLCO [11]) | Pre-emergence action against STEME (STEME [12]) | Pre-emergence action against VIOTR (VIOTR [13]) | Pre-emergence action against VERPE (VERPE [14]) | Post-emergence action against ALOMY (ALOMY [15]) | Post-emergence action against ECHCG (herbicidal action in percent) (ECHCG [16]) | Post-emergence action against LOLRI (herbicidal action in percent) (LOLRI [17]) | Post-emergence action against SETVI (herbicidal action in percent) (SETVI [18]) | Post-emergence action against ABUTH (herbicidal action in percent) (ABUTH [19]) | Post-emergence action against AMARE (herbicidal action in percent) (AMARE [20]) | Post-emergence action against PHBPU (PHBPU [22]) | further results
COCC(=O)c1c(C(F)(F)F)ccc(C(=O)Nc2nnnn2C)c1Cl [1-144] | 100% | 100% | 100% | 100% | 100% | 100% | 100% | 100% | 100% | 80% | 100% | 100% | 100% | 90% | 90% | 80% | 100% | 100% | 100% | 100 | Pre-emergence action against CYPES (herbicidal activity) (CYPES [3]): 100%; Post-emergence action against MATIN (herbicidal action in percent) (MATIN [21]): 90%; Post-emergence action against STEME (STEME [23]): 100; Post-emergence action against VIOTR (VIOTR [24]): 100; Post-emergence action against VERPE (VERPE [25]): 90
Cn1nnnc1NC(=O)c1ccc(C(F)(F)F)c(C(=O)CCl)c1Cl [1-145] | 100% | 100% | 100% | 100% | 100% | 100% | 100% | 100% | 100% | 100% | 100% | 100% | 100% | 90% | 100% | 80% | 100% | 100% | 100% | 100 | Pre-emergence action against CYPES (herbicidal activity) (CYPES [3]): 100%; Post-emergence action against AVEFA (herbicidal action in percent) (AVEFA [26]): 90%; Post-emergence action against CYPES (herbicidal action in percent) (CYPES [27]): 100%; Post-emergence action against STEME (STEME [23]): 100; Post-emergence action against VIOTR (VIOTR [24]): 100; Post-emergence action against VERPE (VERPE [25]): 100
CC1CC1C(=O)c1c(C(F)(F)F)ccc(C(=O)Nc2nnnn2C)c1Cl (stereo not drawn) [1-148] | 100% | 90% | 100% | 100% | 100% | 100% | 100% | 100% | 100% | 90% | 100% | 100% | 100% | 80% | 100% | 80% | 100% | 100% | 100% | 100 | Pre-emergence action against CYPES (herbicidal activity) (CYPES [3]): 90%; Pre-emergence action against HORMU (HORMU): 80%; Post-emergence action against CYPES (herbicidal action in percent) (CYPES [27]): 90%; Post-emergence action against MATIN (herbicidal action in percent) (MATIN [21]): 100%; Post-emergence action against POLCO (POLCO [28]): 80; Post-emergence action against STEME (STEME [23]): 100; Post-emergence action against VIOTR (VIOTR [24]): 90; Post-emergence action against VERPE (VERPE [25]): 100
CCn1nnnc1NC(=O)c1ccc(C(F)(F)F)c(C(=O)C2CC2C)c1Cl (stereo not drawn) [2-148] | 90% | 90% | 100% | 90% | 100% | 100% | 100% | 100% | 90% | 90% | 90% | 100% | 100% | 90% | 90% | 80% | 90% | 90% | 90% | 90 | Pre-emergence action against CYPES (herbicidal activity) (CYPES [3]): 90%; Post-emergence action against MATIN (herbicidal action in percent) (MATIN [21]): 90%; Post-emergence action against STEME (STEME [23]): 90; Post-emergence action against VIOTR (VIOTR [24]): 90; Post-emergence action against VERPE (VERPE [25]): 90
CCn1nnnc1NC(=O)c1ccc(C(F)F)c(C(=O)C2CC2)c1Cl [2-168] | 100% | 90% | 100% | 100% | 100% | 100% | 100% | 100% | 80% | 90% | 100% | 100% | 100% | 100% | 100% | 100% | 100% | 100% | 100% | 100 | Pre-emergence action against HORMU (HORMU): 90%; Post-emergence action against AVEFA (herbicidal action in percent) (AVEFA [26]): 100%; Post-emergence action against CYPES (herbicidal action in percent) (CYPES [27]): 100%; Post-emergence action against MATIN (herbicidal action in percent) (MATIN [21]): 100%; Post-emergence action against POLCO (POLCO [28]): 100; Post-emergence action against STEME (STEME [23]): 100; Post-emergence action against VIOTR (VIOTR [24]): 100; Post-emergence action against VERPE (VERPE [25]): 80

Reference: patent publication US11051515B2, “3-acyl-benzamides and their use as herbicides” (Bayer Aktiengesellschaft, priority 2017, dated 2021)
